Test results reported in US8088815B2, “Spiroindolinone pyrrolidines” (Hoffman-La Roche Inc., priority 2009, dated 2012).

Molecular target: interaction between p53 and MDM2 proteins (Homo sapiens, UniProt Q00987)
Assay: HTRF assay of inhibition of the p53-MDM2 interaction (GST-MDM2 / biotinylated p53 peptide)
Format: binding
Conditions: recombinant GST-tagged MDM2 and biotinylated p53 peptide, bsa:0.02%
Method: The ability of the compounds to inhibit the interaction between p53 and MDM2 proteins was measured by an HTRF (homogeneous time-resolved fluorescence) assay in which recombinant GST-tagged MDM2 binds to a peptide that resembles the MDM2-interacting region of p53. Binding of GST-MDM2 protein and p53-peptide (biotinylated on its N-terminal end) is registered by the FRET (fluorescence resonance energy transfer) between Europium (Eu)-labeled anti-GST antibody and streptavidin-conjugated Allophycocyanin (APC).
Add 10 uL diluted compounds (1:5 dilution in reaction buffer) to each well, mix by shaking. Add 20 uL biotinylated p53 peptide (180 nM working solution) in reaction buffer to each well and mix on shaker. Incubate at 37° C. for 1 h. Add 20 uL streptavidin-APC and Eu-anti-GST antibody mixture (6 nM Eu-anti-GST and 60 nM streptavidin-APC working solution) in TBS buffer with 0.2% BSA, shake at room temperature for 30 minutes and read using a TRF-capable plate reader at
665 and 615 nm (Victor 5, Perkin ElmerWallac). If not specified, the reagents were purchased from Sigma Chemical Co.

interaction between p53 and MDM2 proteins, sequence (Q00987 whole entry): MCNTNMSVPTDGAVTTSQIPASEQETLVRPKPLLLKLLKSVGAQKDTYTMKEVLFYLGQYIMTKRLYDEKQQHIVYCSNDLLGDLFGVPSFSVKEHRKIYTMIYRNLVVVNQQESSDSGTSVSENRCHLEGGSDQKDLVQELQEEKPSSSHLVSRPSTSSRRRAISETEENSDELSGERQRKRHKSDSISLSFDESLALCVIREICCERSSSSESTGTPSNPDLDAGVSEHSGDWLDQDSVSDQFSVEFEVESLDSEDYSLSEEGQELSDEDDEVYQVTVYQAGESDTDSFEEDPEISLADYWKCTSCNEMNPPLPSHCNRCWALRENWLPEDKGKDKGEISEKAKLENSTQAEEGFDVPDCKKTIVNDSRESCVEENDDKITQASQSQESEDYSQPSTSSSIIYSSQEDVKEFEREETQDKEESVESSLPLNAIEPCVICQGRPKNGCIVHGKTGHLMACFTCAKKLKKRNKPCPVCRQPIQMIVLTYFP

Row | SMILES | IC50 [nM]
1 | COc1cc(C(=O)O)ccc1NC(=O)[C@@H]1N[C@@H](CC(C)(C)C)[C@@]2(C(=O)Nc3cc(Br)ccc32)[C@H]1c1cccc(Cl)c1F (racemic) [Example 123, rac-4-{[(2′S,3′R,4′S,5′R)-6-bromo-4′-(3-chloro-2-fluoro-phenyl)-2′-(2,2-dimethyl-propyl)-2-oxo-1,2-dihydro-spiro[indole-3,3′-pyrrolidine]-5′-carbonyl]-amino}-3-methoxy-benzoic acid] | 6
2 | CC(C)(C)C[C@@H]1N[C@@H](C(=O)Nc2ccc(OCC(N)=O)cc2)[C@H](c2cccc(Cl)c2F)[C@]12C(=O)Nc1cc(Cl)ccc12 (racemic) [Example 210, rac-(2′S,3′R,4′S,5′R)-6-chloro-4′-(3-chloro-2-fluoro-phenyl)-2′-(2,2-dimethyl-propyl)-2-oxo-1,2-dihydro-spiro[indole-3,3′-pyrrolidine]-5′-carboxylic acid (4-carbamoylmethoxy-phenyl)-amide] | 15
3 | CC(C)(C)C[C@@H]1N[C@@H](C(=O)Nc2ccc(C(N)=O)cc2)[C@H](c2cccc(Cl)c2F)[C@]12C(=O)Nc1c2ccc(Cl)c1F (racemic) [Example 176, rac-(2′S,3′R,4′S,5′R)-6-chloro-4′-(3-chloro-2-fluoro-phenyl)-2′-(2,2-dimethyl-propyl)-7-fluoro-2-oxo-1,2-dihydro-spiro[indole-3,3′-pyrrolidine]-5′-carboxylic acid (4-carbamoyl-phenyl)-amide] | 18
4 | CC(C)(C)C[C@@H]1N[C@@H](C(=O)Nc2ccc(I)cc2F)[C@H](c2cccc(Cl)c2F)[C@]12C(=O)Nc1cc(Cl)ccc12 (racemic) [Example 51, rac-(2′S,3′R,4′S,5′R)-6-chloro-4′-(3-chloro-2-fluoro-phenyl)-2′-(2,2-dimethyl-propyl)-2-oxo-1,2-dihydro-spiro[indole-3,3′-pyrrolidine]-5′-carboxylic acid (2-fluoro-4-iodo-phenyl)-amide] | 20
5 | CC(C)(C)C[C@@H]1N[C@@H](C(=O)Nc2ccc(C(N)=O)cc2)[C@H](c2cccc(Cl)c2F)[C@]12C(=O)Nc1cc(Cl)ccc12 [Example 9, chiral (2′S,3′R,4′S,5′R)-6-chloro-4′-(3-chloro-2-fluoro-phenyl)-2′-(2,2-dimethyl-propyl)-2-oxo-1,2-dihydro-spiro[indole-3,3′-pyrrolidine]-5′-carboxylic acid (4-carbamoyl-phenyl)-amide] | 4
6 | COC(=O)c1ccc(NC(=O)[C@@H]2N[C@@H](CC(C)(C)C)[C@@]3(C(=O)Nc4cc(Cl)ccc43)[C@H]2c2cccc(Cl)c2F)cc1OC (racemic) [Example 15, rac-4-{[(2′S,3′R,4′S,5′R)-6-chloro-4′-(3-chloro-2-fluoro-phenyl)-2′-(2,2-dimethyl-propyl)-2-oxo-1,2-dihydro-spiro[indole-3,3′-pyrrolidine]-5′-carbonyl]amino}-2-methoxy-benzoic acid methyl ester] | 13
7 | COc1cc(OCCO)ccc1NC(=O)[C@@H]1N[C@@H](CC(C)(C)C)[C@@]2(C(=O)Nc3cc(Cl)ccc32)[C@H]1c1cccc(Cl)c1F [Example 134, chiral (2′S,3′R,4′S,5′R)-6-chloro-4′-(3-chloro-2-fluoro-phenyl)-2′-(2,2-dimethyl-propyl)-2-oxo-1,2-dihydro-spiro[indole-3,3′-pyrrolidine]-5′-carboxylic acid [4-(2-hydroxy-ethoxy)-2-methoxy-phenyl]-amide] | 5
8 | CC(C)(C)C[C@@H]1N[C@@H](C(=O)Nc2cccc(C(=O)O)c2)[C@H](c2cccc(Cl)c2F)[C@]12C(=O)Nc1cc(Cl)ccc12 (racemic) [Example 32, rac-3-{[(2′S,3′R,4′S,5′R)-6-chloro-4′-(3-chloro-2-fluoro-phenyl)-2′-(2,2-dimethyl-propyl)-2-oxo-1,2-dihydro-spiro[indole-3,3′-pyrrolidine]-5′-carbonyl]-amino}-benzoic acid] | 17
9 | COc1cc(N2CC(C)OC(C)C2)ccc1NC(=O)[C@@H]1N[C@@H](CC(C)(C)C)[C@@]2(C(=O)Nc3cc(Cl)ccc32)[C@H]1c1cccc(Cl)c1F (mixture of isomers) [Example 144, rac-(2′S,3′R,4′S,5′R)-6-chloro-4′-(3-chloro-2-fluoro-phenyl)-2′-(2,2-dimethyl-propyl)-2-oxo-1,2-dihydro-spiro[indole-3,3′-pyrrolidine]-5′-carboxylic acid [4-(2,6-dimethyl-morpholin-4-yl)-2-methoxy-phenyl]-amide] | 19
10 | COC(=O)c1cccc(NC(=O)[C@@H]2N[C@@H](CC(C)(C)C)[C@@]3(C(=O)Nc4cc(Cl)ccc43)[C@H]2c2cccc(Cl)c2F)c1 (racemic) [Example 31, rac-3-{[(2′S,3′R,4′S,5′R)-6-chloro-4′-(3-chloro-2-fluoro-phenyl)-2′-(2,2-dimethyl-propyl)-2-oxo-1,2-dihydro-spiro[indole-3,3′-pyrrolidine]-5′-carbonyl]amino}-benzoic acid methyl ester] | 17
11 | CC(C)(C)C[C@@H]1N[C@@H](C(=O)Nc2ccc(C#N)cc2F)[C@H](c2cccc(Cl)c2F)[C@]12C(=O)Nc1cc(Cl)ccc12 (racemic) [Example 52, rac-(2′S,3′R,4′S,5′R)-6-chloro-4′-(3-chloro-2-fluoro-phenyl)-2′-(2,2-dimethyl-propyl)-2-oxo-1,2-dihydro-spiro[indole-3,3′-pyrrolidine]-5′-carboxylic acid (4-cyano-2-fluoro-phenyl)-amide] | 12

Continued by falling IC50, values first:

Row | IC50 [nM] | SMILES
12 | 40 | CC(C)(C)C[C@@H]1N[C@@H](C(=O)Nc2ccc(C#N)cc2)[C@H](c2cccc(Cl)c2F)[C@]12C(=O)Nc1c2ccc(Cl)c1F (racemic) [Example 175, rac-(2′S,3′R,4′S,5′R)-6-chloro-4′-(3-chloro-2-fluoro-phenyl)-2′-(2,2-dimethyl-propyl)-7-fluoro-2-oxo-1,2-dihydro-spiro[indole-3,3′-pyrrolidine]-5′-carboxylic acid (4-cyano-phenyl)-amide]
13 | 22 | CC(C)(C)C[C@@H]1N[C@@H](C(=O)Nc2ccc(C#N)cc2)[C@H](c2cccc(Cl)c2F)[C@]12C(=O)Nc1cc(Cl)cc(F)c12 (racemic) [Example 72, rac-(2′S,3′R,4′S,5′R)-6-chloro-4′-(3-chloro-2-fluoro-phenyl)-2′-(2,2-dimethyl-propyl)-4-fluoro-2-oxo-1,2-dihydro-spiro[indole-3,3′-pyrrolidine]-5′-carboxylic acid (4-cyano-phenyl)-amide]
14 | 15 | COc1cc(C#N)ccc1NC(=O)[C@@H]1N[C@@H](CC(C)(C)C)[C@@]2(C(=O)Nc3cc(Cl)ccc32)[C@H]1c1cccc(Br)c1F (racemic) [Example 116, rac-(2′S,3′R,4′S,5′R)-4′-(3-bromo-2-fluoro-phenyl)-6-chloro-2′-(2,2-dimethyl-propyl)-2-oxo-1,2-dihydro-spiro[indole-3,3′-pyrrolidine]-5′-carboxylic acid (4-cyano-2-methoxy-phenyl)-amide]
15 | 15 | COc1cc(N2CCOCC2)ccc1NC(=O)[C@@H]1N[C@@H](CC(C)(C)C)[C@@]2(C(=O)Nc3cc(Cl)ccc32)[C@H]1c1cccc(Cl)c1F (racemic) [Example 143, rac-(2′S,3′R,4′S,5′R)-6-chloro-4′-(3-chloro-2-fluoro-phenyl)-2′-(2,2-dimethyl-propyl)-2-oxo-1,2-dihydro-spiro[indole-3,3′-pyrrolidine]-5′-carboxylic acid (2-methoxy-4-morpholin-4-yl-phenyl)-amide]
16 | 14 | COc1cc(C(N)=O)ccc1NC(=O)[C@@H]1N[C@@H](CC(C)(C)C)[C@@]2(C(=O)Nc3cc(Cl)ccc32)[C@H]1c1cccc(Cl)c1F (racemic) [Example 59, rac-(2′S,3′R,4′S,5′R)-6-chloro-4′-(3-chloro-2-fluoro-phenyl)-2′-(2,2-dimethyl-propyl)-2-oxo-1,2-dihydro-spiro[indole-3,3′-pyrrolidine]-5′-carboxylic acid (4-carbamoyl-2-methoxy-phenyl)-amide]
17 | 13 | CCOC(=O)CNc1ccc(NC(=O)[C@@H]2N[C@@H](CC(C)(C)C)[C@@]3(C(=O)Nc4cc(Cl)ccc43)[C@H]2c2cccc(Cl)c2F)cc1 (racemic) [Example 217, rac-(4-{[(2′S,3′R,4′S,5′R)-6-chloro-4′-(3-chloro-2-fluoro-phenyl)-2′-(2,2-dimethyl-propyl)-2-oxo-1,2-dihydro-spiro[indole-3,3′-pyrrolidine]-5′-carbonyl]-amino}-phenylamino)-acetic acid ethyl ester]
18 | 13 | CC(C)(C)C[C@@H]1N[C@@H](C(=O)Nc2ccc(C(N)=O)cc2)[C@H](c2cc(F)cc(Cl)c2)[C@]12C(=O)Nc1cc(Cl)ccc12 (racemic) [Example 89]
19 | 11 | CC(C)(C)C[C@@H]1N[C@@H](C(=O)Nc2ccc(C(N)=O)cc2F)[C@H](c2cccc(Cl)c2F)[C@]12C(=O)Nc1cc(Cl)ccc12 (racemic) [Example 53, rac-(2′S,3′R,4′S,5′R)-6-chloro-4′-(3-chloro-2-fluoro-phenyl)-2′-(2,2-dimethyl-propyl)-2-oxo-1,2-dihydro-spiro[indole-3,3′-pyrrolidine]-5′-carboxylic acid (4-carbamoyl-2-fluoro-phenyl)-amide]
20 | 11 | COc1cc(C#N)ccc1NC(=O)[C@@H]1N[C@@H](CC(C)(C)C)[C@@]2(C(=O)Nc3cc(Br)ccc32)[C@H]1c1cccc(Cl)c1F (racemic) [Example 118, rac-(2′S,3′R,4′S,5′R)-6-bromo-4′-(3-chloro-2-fluoro-phenyl)-2′-(2,2-dimethyl-propyl)-2-oxo-1,2-dihydro-spiro[indole-3,3′-pyrrolidine]-5′-carboxylic acid (4-cyano-2-methoxy-phenyl)-amide]
